Assays:
[1] = tested on: barley; test: Test C postemergence; format: in vivo, Hordeum vulgare
[2] = tested on: Surinam grass; test: Test C preemergence; format: in vivo, Brachiaria decumbens; details: for Plant response rating (scale of 0 to 100), Surinam Grass: Preemergence, 250 g ai/ha; for Surinam Grass plant response rating / Plant response rating, Surinam Grass: preemergence; for Plant response rating, Surinam Grass: 62 g ai/ha, scale 0 to 100, 0 = no effect, 100 = complete control
Excerpt: (§1) Seeds of plant species selected from blackgrass (Alopecurus myosuroides), ryegrass, Italian (Italian ryegrass, Lolium multiflorum), wheat (winter wheat, Triticum aestivum), galium (catchweed bedstraw, Galium aparine), corn (Zea mays), crabgrass, large (large crabgrass, Digitaria sanguinalis), foxtail, giant (giant foxtail, Setaria faberii), johnsongrass (Sorghum halepense), lambsquarters (Chenopodium album), morningglory (Ipomoea coccinea), nutsedge, yellow (yellow nutsedge, Cyperus esculentus), pigweed (redroot pigweed, Amaranthus retroflexus), ragweed (common ragweed, Ambrosia elation), soybean (Glycine max), barnyardgrass (Echinochloa crus-galli), oilseed rape (Brassica napus), waterhemp (common waterhemp, Amaranthus rudis), oat, wild (wild oat, Avena fatua), kochia (Kochia scoparia), Surinam grass (Brachiaria decumbens), foxtail, green (green foxtail, Setaria viridis), goosegrass (Eleusine indica), bromegrass, downy (downy bromegrass, Bromus tectorum), nightshade (eastern black nightshade, Solanum ptycanthum), cocklebur (common cocklebur, Xanthium strumarium), cupgrass, woolly (woolly cupgrass, Eriochloa villosa), bermudagrass (Cynodon dactylon), sunflower, (common oilseed sunflower, Helianthus annuus), Russian thistle (Salsola kali), and velvetleaf (Abutilon theophrasti) were planted into a blend of loam soil and sand and treated preemergence with test chemicals formulated in a non-phytotoxic solvent mixture which included a surfactant.
(§2) At the same time, plants selected from these crop and weed species and also chickweed (common chickweed, Stellaria media), canarygrass (littleseed canarygrass, Phalaris minor), and deadnettle (henbit deadnettle, Lamium amplexicaule), were planted in pots containing Redi-Earth® planting medium (Scotts Company, 14111 Scottslawn Road, Marysville, Ohio 43041) comprising spaghnum peat moss, vermiculite, wetting agent and starter nutrients and treated with postemergence applications of test chemicals formulated in the same manner. Plants ranged in height from 2 to 18 cm (1- to 4-leaf stage) for postemergence treatments. Treated plants and controls were maintained in a greenhouse for 13 to 15 days, after which time all species were compared to controls and visually evaluated. Plant response ratings, summarized in Table C, are based on a scale of 0 to 100 where 0 is no effect and 100 is complete control. A dash (-) response means no test result.

[3] = tested on: bromegrass, downy; test: Test C preemergence; format: in vivo, Bromus tectorum; details: for Plant response rating (scale of 0 to 100), Bromegrass, Downy: Preemergence, 250 g ai/ha; for Bromegrass, Downy plant response rating / Plant response rating, Bromegrass, Downy: preemergence; for Plant response rating, Bromegrass, Downy: 62 g ai/ha, scale 0 to 100, 0 = no effect, 100 = complete control
Excerpt: as §1, §2

[4] = tested on: deadnettle; test: Test C postemergence; format: in vivo, Lamium amplexicaule; details: for Deadnettle plant response rating: scale 0 to 100
Excerpt: as §1, §2

[5] = tested on: Russian thistle; test: Test D postemergence; format: in vivo, Salsola kali; details: scale 0 to 100; for Plant response rating, Russian Thistle: 16 g ai/ha
Excerpt: Seeds of plant species selected from bluegrass (annual bluegrass, Poa annua), blackgrass (Alopecurus myosuroides), canarygrass (littleseed canarygrass, Phalaris minor), chickweed (common chickweed, Stellaria media), galium (catchweed bedstraw, Galium aparine), bromegrass, downy (downy bromegrass, Bromus tectorum), field poppy (Papaver rhoeas), field violet (Viola arvensis), foxtail, green (green foxtail, Setaria viridis), deadnettle (henbit deadnettle, Lamium amplexicaule), ryegrass, Italian (Italian ryegrass, Lolium multiflorum), kochia (Kochia scoparia), lambsquarters (Chenopodium album), oilseed rape (Brassica napus), pigweed (redroot pigweed, Amaranthus retroflexus), chamomile (scentless chamomile, Matricaria inodora), speedwell (bird's-eye speedwell, Veronica persica), barley, spring (spring barley, Hordeum vulgare), wheat, spring (spring wheat, Triticum aestivum), buckwheat, wild (wild buckwheat, Polygonum convolvulus), mustard, wild (wild mustard, Sinapis arvensis), oat, wild (wild oat, Avena fatua), radish, wild (wild radish, Raphanus raphanistrum), windgrass (Apera spica-venti), Russian thistle (Salsola kali), barley, winter (winter barley, Hordeum vulgare), and wheat, winter (winter wheat, Triticum aestivum) were planted into a silt loam soil and treated preemergence with test chemicals formulated in a non-phytotoxic solvent mixture which included a surfactant.
At the same time, these species were planted in pots containing Redi-Earth® planting medium (Scotts Company, 14111 Scottslawn Road, Marysville, Ohio 43041) comprising spaghnum peat moss, vermiculite, wetting agent and starter nutrients and treated with postemergence applications of the test chemicals formulated in the same manner. Plants ranged in height from 2 to 18 cm (1- to 4-leaf stage). Treated plants and controls were maintained in a controlled growth environment for 14 to 21 days after which time all species were compared to controls and visually evaluated. Plant response ratings, summarized in Table D, are based on a scale of 0 to 100 where 0 is no effect and 100 is complete control. A dash (-) response means no test result.

[6] = tested on: nightshade; test: Test F preemergence; format: in vivo, Solanum ptycanthum
Excerpt: Seeds of plant species selected from corn (Zea mays), soybean (Glycine max), velvetleaf (Abutilon theophrasti), lambsquarters (Chenopodium album), wild poinsettia (Euphorbia heterophylla), pigweed, palmer (palmer pigweed, Amaranthus palmeri), common waterhemp (Amaranthus rudis), surinam grass (Brachiaria decumbens), large crabgrass (Digitaria sanguinalis), crabgrass, Brazil (Brazilian crabgrass, Digitaria horizontalis), fall panicum (Panicum dichotomiflorum), giant foxtail (Setaria faberii), green foxtail (Setaria viridis), goosegrass (Eleusine indica), johnsongrass (Sorghum halepense), common ragweed (Ambrosia elation), barnyardgrass (Echinochloa crus-galli), southern sandbur (Cenchrus echinatus), arrowleaf sida (Sida rhombifolia), Italian ryegrass (Lolium multiflorum), dayflower, VA (Virginia (VA) dayflower, Commelina virginica), field bindweed (Convolvulus arvensis), cocklebur (common cocklebur, Xanthium strumarium), morningglory (Ipomoea coccinea), nightshade (eastern black nightshade, Solanum ptycanthum), kochia (Kochia scoparia), yellow nutsedge (Cyperus esculentus), and hairy beggarticks (Bidens pilosa), were planted into a silt loam soil and treated preemergence with test chemicals formulated in a non-phytotoxic solvent mixture which included a surfactant.
At the same time, plants from these crop and weed species and also horseweed (Canada horseweed, Conyza canadensis), smartweed (ladysthumb smartweed, Polygonum persicaria), waterhemp_RES1, (ALS & Triazine resistant common waterhemp, Amaranthus rudis), and waterhemp_RES2, (ALS & HPPD resistant common waterhemp, Amaranthus rudis) were treated with postemergence applications of test chemicals formulated in the same manner. Plants ranged in height from 2 to 18 cm for postemergence treatments (1- to 4-leaf stage). Treated plants and controls were maintained in a greenhouse for 14 to 21 days, after which time all species were compared to controls and visually evaluated. Plant response ratings, summarized in Table F, are based on a scale of 0 to 100 where 0 is no effect and 100 is complete control. A dash (-) response means no test result.

[7] = 125 g ai/ha, scale 0 to 100, 0 no effect, 100 complete control
[8] = 250 g ai/ha, scale 0 to 100 (0 no effect, 100 complete control)
[9] = 31 g ai/ha, scale 0 to 100 (0 no effect, 100 complete control), 13 to 15 days
[10] = 125 g ai/ha, scale 0 to 100, 0 is no effect, 100 is complete control
[11] = postemergence, 250 g ai/ha, scale 0 to 100 (0 no effect, 100 complete control)
[12] = postemergence, 125 g ai/ha, scale 0 to 100, 0 no effect, 100 complete control
[13] = Preemergence, 62 g ai/ha, scale 0 to 100
[14] = Preemergence, 125 g ai/ha, scale 0 to 100
[15] = preemergence, 16 g ai/ha, scale 0 to 100, 100 is complete control
[16] = Preemergence, 250 g ai/ha, scale 0 to 100

Compound: CCc1cc(C(=O)NCC(F)(F)F)nn1Cc1cccc(OC(F)(F)F)c1 [Compound 20]
- Plant response rating, Barley [1, 7]: 30
- Plant response rating, Barley [1, 8]: 30

Compound: CCCNC(=O)c1cc(CC)n(Cc2cccc(OC(F)(F)F)c2)n1 [Compound 27]
- Plant response rating, Barley [1, 7]: 20
- Plant response rating, Barley [1, 8]: 30

Compound: CCc1cc(C(=O)NOC(C)C)nn1Cc1cccc(OC(F)(F)F)c1 [Compound 70]
- Plant response rating (scale of 0 to 100), Surinam Grass [2]: 85
- Surinam Grass plant response rating [2, 9]: 5
- Plant response rating, Surinam Grass ([2]; 13 to 15 days): 25
- Surinam Grass plant response rating [2, 10]: 65
- Plant response rating (scale of 0 to 100), Bromegrass, Downy [3]: 80
- Bromegrass, Downy plant response rating [3, 9]: 20
- Plant response rating, Bromegrass, Downy ([3]; 13 to 15 days): 35
- Bromegrass, Downy plant response rating [3, 10]: 40
- Deadnettle plant response rating ([4]; Postemergence, 31 g ai/ha): 25
- Plant response rating, Deadnettle [4, 11]: 90
- Plant response rating, Deadnettle ([4]; postemergence, 62 g ai/ha, scale 0 to 100, 0 no effect, 100 complete control): 70
- Plant response rating, Deadnettle [4, 12]: 70
- Plant response rating, Russian Thistle ([5]; Postemergence): 0
- Russian Thistle plant response rating ([5]; Postemergence, 31 g ai/ha): 80
- Russian Thistle plant response rating ([5]; Postemergence, 125 g ai/ha): 85
- Russian Thistle plant response rating ([5]; Postemergence, 250 g ai/ha): 90
- Russian Thistle plant response rating ([5]; postemergence, 62 g ai/ha): 80
- Plant response rating, Barley [1, 8]: 25

Compound: CCONC(=O)c1cc(CC)n(Cc2cccc(OC(F)(F)F)c2)n1 [Compound 72]
- Plant response rating (scale of 0 to 100), Surinam Grass [2]: 75
- Surinam Grass plant response rating [2, 9]: 10
- Plant response rating, Surinam Grass ([2]; 13 to 15 days): 15
- Surinam Grass plant response rating [2, 10]: 65
- Plant response rating (scale of 0 to 100), Bromegrass, Downy [3]: 90
- Bromegrass, Downy plant response rating [3, 9]: 5
- Plant response rating, Bromegrass, Downy ([3]; 13 to 15 days): 45
- Bromegrass, Downy plant response rating [3, 10]: 80
- Deadnettle plant response rating ([4]; Postemergence, 31 g ai/ha): 40
- Deadnettle plant response rating ([4]; postemergence, 62 g ai/ha): 40
- Plant response rating, Deadnettle [4, 11]: 70
- Plant response rating, Deadnettle [4, 12]: 40
- Plant response rating, Barley [1, 8]: 10

Compound: Cc1cc(C(=O)NCC(F)(F)F)nn1Cc1ccnc(C(F)(F)F)c1 [Compound 74]
- Plant response rating (scale of 0 to 100), Surinam Grass [2]: 100
- Surinam Grass plant response rating [2, 9]: 15
- Plant response rating, Surinam Grass ([2]; 13 to 15 days): 50
- Surinam Grass plant response rating [2, 10]: 85
- Plant response rating (scale of 0 to 100), Bromegrass, Downy [3]: 95
- Bromegrass, Downy plant response rating [3, 9]: 0
- Plant response rating, Bromegrass, Downy ([3]; 13 to 15 days): 5
- Bromegrass, Downy plant response rating [3, 10]: 50
- Deadnettle plant response rating ([4]; Postemergence, 31 g ai/ha): 10
- Deadnettle plant response rating ([4]; postemergence, 62 g ai/ha): 60
- Plant response rating, Deadnettle [4, 11]: 80
- Plant response rating, Deadnettle [4, 12]: 70
- Plant response rating, Russian Thistle ([5]; Postemergence): 0
- Russian Thistle plant response rating ([5]; Postemergence, 31 g ai/ha): 0
- Russian Thistle plant response rating ([5]; Postemergence, 125 g ai/ha): 60
- Russian Thistle plant response rating ([5]; postemergence, 62 g ai/ha): 0
- Plant response rating, Barley [1, 8]: 5

Compound: CCc1cc(C(=O)NC2CC2)nn1Cc1ccnc(C(F)(F)F)c1 [Compound 76]
- Plant response rating, Russian Thistle ([5]; Postemergence): 5
- Russian Thistle plant response rating ([5]; Postemergence, 31 g ai/ha): 5
- Russian Thistle plant response rating ([5]; Postemergence, 125 g ai/ha): 10
- Russian Thistle plant response rating ([5]; Postemergence, 250 g ai/ha): 40
- Russian Thistle plant response rating ([5]; postemergence, 62 g ai/ha): 5

Compound: CCc1cc(-c2ccc(C(F)(F)F)cc2)nn1Cc1ccnc(C(F)(F)F)c1 [Compound 110]
- Plant response rating, Nightshade ([6]; Preemergence, 31 g ai/ha, scale 0 to 100): 80
- Plant response rating, Nightshade [6, 13]: 85
- Plant response rating, Nightshade [6, 14]: 95
- Plant response rating, Nightshade ([6]; preemergence, 8 g ai/ha, scale 0 to 100, 100 is complete control): 50
- Plant response rating, Nightshade [6, 15]: 65

Compound: CCCc1cc(C(=O)NC(C)C)nn1Cc1cc(C(F)(F)F)nn1C [Compound 201]
- Plant response rating, Nightshade ([6]; Preemergence, 16 g ai/ha, scale 0 to 100): 10
- Plant response rating, Nightshade [6, 13]: 80
- Plant response rating, Nightshade [6, 14]: 95
- Plant response rating, Nightshade [6, 16]: 98
- Plant response rating, Nightshade [6, 15]: 0

Compound: CCc1cc(C(=O)NCC(F)(F)F)nn1Cc1ccnc(Br)c1 [Compound 224]
- Plant response rating, Nightshade [6, 14]: 0
- Plant response rating, Nightshade [6, 16]: 95
